Reference: the supplement of paper PMC11208160

Assay: recombinant UMI read abundance after kanamycin selection (control-corrected) (log10(CPM+1)); higher = more efficient recombination; extreme values may be limits of the assay; sequences stand for … in AGTGCAGAGAAAATCGGCCAGTTTTCTCTGCCTGCAGTCCGCATGCCGTGGGACCCCTTGGGTTCTAACCTGTTGCCTAGATTTATGCAGCGGACTGCCTTTCTCCCAAAGTGATAAACCGG…AGGTTGGTTTCACT; site = the 11-nt donor
Procedure, shortened: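 Values, expressed as log10(CPM+1), derive from recombinant UMI counts converted to CPM, averaged across replicates and scaled by control-derived factors. Plating was with IPTG (0.07 mM) plus kanamycin or unselected, two replicates each. The screen pooled donor and donor-binding-loop pairs for the IS621 bridge recombinase in Escherichia coli.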
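Also: IS621 bridge recombinase in Escherichia coli cells against a fixed T5 target plasmid.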

Row | Sequence | recombinant UMI read abundance (log10)
1 | CACGGCCCATGGACCGGTTTTCCCGGTAATCCGTATTTGTT (site CACGGCTCTAA) | 1.79
2 | CACGGCCCATGGACCGGTTTTCCCGGTAATCCGTATTTGTT (site CACGGGCCTAA) | 0
3 | CACGGCCCATGGACCGGTTTTCCCGGTAATCCGTATTTGTT (site CACGGTCCTAA) | 0.311
4 | CACGGCCCATGGACCGGTTTTCCCGGTAATCCGTATTTGTT (site CACGTCCCTAA) | 0.0115
5 | CACGGCCCATGGACCGGTTTTCCCGGTAATCCGTATTTGTT (site CACTGCCCTAA) | 0.0132
6 | CACGGCCCATGGACCGGTTTTCCCGGTAATCCGTATTTGTT (site CAGGGCCCTAA) | 0.00724
7 | CACGGCCCATGGACCGGTTTTCCCGGTAATCCGTATTTGTT (site CATGGCCCTAA) | 0.013
8 | CACGGCCCATGGACCGGTTTTCCCGGTAATCCGTATTTGTT (site CCCGGCCCTAA) | 0.0158
9 | CACGGCCCATGGACCGGTTTTCCCGGTAATCCGTATTTGTT (site CGCGGCCCTAA) | 0.0132
10 | CACGGCCCATGGACCGGTTTTCCCGGTAATCCGTATTTGTT (site CTCGGCCCTAA) | 0.0153
11 | CACGGCCCATGGACCGGTTTTCCCGGTAATCCGTATTTGTT (site GACGGCCCTAA) | 0.0197
12 | CACGGCCCATGGACCGGTTTTCCCGGTAATCCGTATTTGTT (site TACGGCCCTAA) | 0.0279
13 | CACGGCGCATGGACCGGTTTTCCCGGTAATCCGTATTTGTT (site CACGGCACTAA) | 1.5
14 | CACGGCGCATGGACCGGTTTTCCCGGTAATCCGTATTTGTT (site CACGGCCCTAA) | 0.445
15 | CACGGCGCATGGACCGGTTTTCCCGGTAATCCGTATTTGTT (site CACGGCGCTAA) | 1.74
16 | CACGGCGCATGGACCGGTTTTCCCGGTAATCCGTATTTGTT (site CACGGCTCTAA) | 1.22
17 | CACGTATCATGGACCGGTTTTCCCGGTAATCCGTATTTGAC (site CACGTATCTGT) | 2.78
18 | CACGTATCATGGACCGGTTTTCCCGGTAATCCGTATTTGAC (site CTAGTATCTGT) | 1.1
19 | CACGTCACATGGACCGGTTTTCCCGGTAATCCGTATTTGGG (site CAAGTCACTCC) | 0.0977
20 | CACGTCACATGGACCGGTTTTCCCGGTAATCCGTATTTGGG (site CACGTCACTCC) | 0.0104
21 | CACGTCACATGGACCGGTTTTCCCGGTAATCCGTATTTGGG (site CAGGTCACTCC) | 0.00985
22 | CACGTCACATGGACCGGTTTTCCCGGTAATCCGTATTTGGG (site CATGTCACTCC) | 0.012
23 | CACGTCCCATGGACCGGTTTTCCCGGTAATCCGTATTTGTT (site CACGACCCTAA) | 0.22
24 | CACGTCCCATGGACCGGTTTTCCCGGTAATCCGTATTTGTT (site CACGCCCCTAA) | 0.263
25 | CACGTCCCATGGACCGGTTTTCCCGGTAATCCGTATTTGTT (site CACGGCCCTAA) | 0.00825

Row | Sequence | recombinant UMI read abundance (log10)
26 | CACGTCCCATGGACCGGTTTTCCCGGTAATCCGTATTTGTT (site CACGTCCCTAA) | 0.326
27 | CACGTGGCATGGACCGGTTTTCCCGGTAATCCGTATTTGGA (site CACATGGCTTC) | 0.429
28 | CACGTGGCATGGACCGGTTTTCCCGGTAATCCGTATTTGGA (site CACCTGGCTTC) | 0.475
29 | CACGTGGCATGGACCGGTTTTCCCGGTAATCCGTATTTGGA (site CACGTGGCTTC) | 1.2
30 | CACGTGGCATGGACCGGTTTTCCCGGTAATCCGTATTTGGA (site CACTTGGCTTC) | 0.235
31 | CACTAGCCATGGACCGGTTTTCCCGGTAATCCGTATTTGCC (site CACTAGCCTGG) | 0.665
32 | CACTAGCCATGGACCGGTTTTCCCGGTAATCCGTATTTGCC (site CCCTAGCCTGG) | 0
33 | CACTAGCCATGGACCGGTTTTCCCGGTAATCCGTATTTGCC (site CGCTAGCCTGG) | 0
34 | CACTAGCCATGGACCGGTTTTCCCGGTAATCCGTATTTGCC (site CTCTAGCCTGG) | 0
35 | CACTAGGCATGGACCGGTTTTCCCGGTAATCCGTATTTGAT (site CACTAGGCTAT) | 1.33
36 | CACTCGACATGGACCGGTTTTCCCGGTAATCCGTATTTGTG (site CACTCGACTCA) | 0.319
37 | CACTCGTCATGGACCGGTTTTCCCGGTAATCCGTATTTGCC (site CACTCATCTGG) | 2.88
38 | CACTCGTCATGGACCGGTTTTCCCGGTAATCCGTATTTGCC (site CACTCCTCTGG) | 0
39 | CACTCGTCATGGACCGGTTTTCCCGGTAATCCGTATTTGCC (site CACTCGTCTGG) | 3.2
40 | CACTCGTCATGGACCGGTTTTCCCGGTAATCCGTATTTGCC (site CACTCTTCTGG) | 0
41 | CACTCTTCATGGACCGGTTTTCCCGGTAATCCGTATTTGTT (site CACTCTTCTAA) | 1.58
42 | CACTGACCATGGACCGGTTTTCCCGGTAATCCGTATTTGGG (site CACTGACCTCC) | 0.00646
43 | CACTGCTCATGGACCGGTTTTCCCGGTAATCCGTATTTGCC (site CACTACTCTGG) | 2
44 | CACTGCTCATGGACCGGTTTTCCCGGTAATCCGTATTTGCC (site CACTCCTCTGG) | 0
45 | CACTGCTCATGGACCGGTTTTCCCGGTAATCCGTATTTGCC (site CACTGCTCTGG) | 2.93
46 | CACTGCTCATGGACCGGTTTTCCCGGTAATCCGTATTTGCC (site CACTTCTCTGG) | 0
47 | CACTTCTCATGGACCGGTTTTCCCGGTAATCCGTATTTGCC (site CACTACTCTGG) | 1.09
48 | CACTTCTCATGGACCGGTTTTCCCGGTAATCCGTATTTGCC (site CACTCCTCTGG) | 1.41
49 | CACTTCTCATGGACCGGTTTTCCCGGTAATCCGTATTTGCC (site CACTGCTCTGG) | 0
50 | CACTTCTCATGGACCGGTTTTCCCGGTAATCCGTATTTGCC (site CACTTCTCTGG) | 2.12

Row | Sequence | recombinant UMI read abundance (log10)
51 | CACTTGACATGGACCGGTTTTCCCGGTAATCCGTATTTGGA (site CACTTGACTTC) | 0.194
52 | CACTTGACATGGACCGGTTTTCCCGGTAATCCGTATTTGGA (site CACTTGCCTTC) | 0.0198
53 | CACTTGACATGGACCGGTTTTCCCGGTAATCCGTATTTGGA (site CACTTGGCTTC) | 0.369
54 | CACTTGACATGGACCGGTTTTCCCGGTAATCCGTATTTGGA (site CACTTGTCTTC) | 0.138
55 | CACTTGGCATGGACCGGTTTTCCCGGTAATCCGTATTTGAA (site CACTTGGCTTA) | 0.431
56 | CACTTGGCATGGACCGGTTTTCCCGGTAATCCGTATTTGAA (site CACTTGGCTTC) | 0.236
57 | CACTTGGCATGGACCGGTTTTCCCGGTAATCCGTATTTGAA (site CACTTGGCTTG) | 1.05
58 | CACTTGGCATGGACCGGTTTTCCCGGTAATCCGTATTTGAA (site CACTTGGCTTT) | 1.33
59 | CACTTGGCATGGACCGGTTTTCCCGGTAATCCGTATTTGGT (site CACTTGGCTAC) | 1.79
60 | CACTTGGCATGGACCGGTTTTCCCGGTAATCCGTATTTGGT (site CACTTGGCTCC) | 0.103
61 | CACTTGGCATGGACCGGTTTTCCCGGTAATCCGTATTTGGT (site CACTTGGCTGC) | 1.88
62 | CACTTGGCATGGACCGGTTTTCCCGGTAATCCGTATTTGGT (site CACTTGGCTTC) | 0.0133
63 | CACTTGGCATGGACCGGTTTTCCCGGTAATCCGTATTTGTA (site CACTTGGCTTA) | 1.46
64 | CACTTGGCATGGACCGGTTTTCCCGGTAATCCGTATTTGTA (site CACTTGGCTTC) | 0.00904
65 | CACTTGGCATGGACCGGTTTTCCCGGTAATCCGTATTTGTA (site CACTTGGCTTG) | 1.47
66 | CACTTGGCATGGACCGGTTTTCCCGGTAATCCGTATTTGTA (site CACTTGGCTTT) | 0.75
67 | CACTTTCCATGGACCGGTTTTCCCGGTAATCCGTATTTGAG (site CACTTTCCTCT) | 0.0778
68 | CACTTTGCATGGACCGGTTTTCCCGGTAATCCGTATTTGGA (site CACTTAGCTTC) | 0.0269
69 | CACTTTGCATGGACCGGTTTTCCCGGTAATCCGTATTTGGA (site CACTTCGCTTC) | 0.0129
70 | CACTTTGCATGGACCGGTTTTCCCGGTAATCCGTATTTGGA (site CACTTGGCTTC) | 0.0264
71 | CACTTTGCATGGACCGGTTTTCCCGGTAATCCGTATTTGGA (site CACTTTGCTTC) | 1.71
72 | CAGAACCCATGGACCGGTTTTCCCGGTAATCCGTATTTGCC (site CAGAACCCTGG) | 0
73 | CAGAATCCATGGACCGGTTTTCCCGGTAATCCGTATTTGAT (site CAGAATCCTAT) | 1.84
74 | CAGAATCCATGGACCGGTTTTCCCGGTAATCCGTATTTGAT (site CGGAATCCTAA) | 0
75 | CAGAATCCATGGACCGGTTTTCCCGGTAATCCGTATTTGTT (site CAGAATCCTAA) | 2.07
